Laboratory results from US11000033B2, “Ketone or oxime compound, and herbicide” (NISSAN CHEMICAL CORPORATION, priority 2014, dated 2021).

Legend:
Assay type in all cases: in vivo
rapeseed = assay: Test Example 4: effect on crop by soil treatment (symbol g)
Summary of the method: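 Plants grew in a 25° C. to 30° C. greenhouse after spot-sowing of seeds, including beet, rapeseed, wheat and rice, into sterilized diluvial soil under roughly 1.5 cm of cover soil.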

Digitaria ciliaris = assay: Test Example 4: herbicidal effect by soil treatment (symbol F)
Summary of the method: (§1)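 Seeds were sown in sterilized diluvial soil, covered with about 1.5 cm of soil, and the soil surface was sprayed with a water-diluted emulsion of the compound at a predetermined rate. Plants grew in a greenhouse at 25° C. to 30° C.; effects were scored visually 3 weeks after application.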

Amaranthus retroflexus [1] = assay: Test Example 4: herbicidal effect by soil treatment (symbol N)
Summary of the method: as §1

Avena fatua = assay: Test Example 5: herbicidal effect by foliage application, plastic box (symbol I); conditions: 320 g/ha, 3 weeks after application
Summary of the method: (§2)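 Leaf-applied emulsion, water-diluted to a preset herbicide dose, on two-week-old seedlings raised in a 25° C. to 30° C. greenhouse; injury rated at 3 weeks using earlier criteria.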

Monochoria vaginalis [2] = assay: Test Example 1: herbicidal activity, application before weed generation in submerged conditions (symbol C); conditions: application herbicide amount 320 g/ha
Summary of the method: (§3)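 Steps: alluvial soil flooded to 4 cm; weed seeds sown together; rice seedlings (2.5 leaf) transplanted; diluted emulsion applied to water surface the same day as sowing; plants grown at 25–30 °C in greenhouse; herbicidal effect rated on a 0–5 scale at 3 weeks.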

[3] = system: Echinochloa crus-galli var. crus-galli; assay: Test Example 5: herbicidal effect by foliage application, plastic box (symbol H); conditions: 320 g/ha, 3 weeks after application
Summary of the method: as §2

Cyperus difformis = assay: Test Example 3: herbicidal effect by foliage application, Wagner pot (symbol E); conditions: application herbicide amount 320 g/ha
Summary of the method: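 Plants sown in submerged alluvial soil (water depth 0.1–0.5 cm) in a 25–30 °C greenhouse and grown 14 days. An emulsion of the compound diluted in water to a set herbicide amount was sprayed uniformly on foliage. Effect on each plant scored 3 weeks after application.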

Alopecurus myosuroides = assay: Test Example 5: herbicidal effect by foliage application, plastic box (symbol J); conditions: 320 g/ha, 3 weeks after application
Summary of the method: as §2

[4] = system: Echinochloa oryzacola Vasing.; assay: Test Example 1: herbicidal activity, application before weed generation in submerged conditions (symbol A); conditions: application herbicide amount 320 g/ha
Summary of the method: as §3

Amaranthus retroflexus [5] = assay: Test Example 5: herbicidal effect by foliage application, plastic box (symbol N); conditions: 320 g/ha, 3 weeks after application
Summary of the method: as §2

[6] = system: directly sowed rice plant; assay: Test Example 3: effect on crop by foliage application, Wagner pot (symbol b); conditions: application herbicide amount 320 g/ha
Summary of the method: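 Plants are raised from seed in flooded paddy conditions: water stands 0.1–0.5 cm over alluvial soil, and the pot is kept in a greenhouse at 25–30 °C. Species sown are barnyardgrass (E. crus-galli var. crus-galli), Leptochloa chinensis, Cyperus difformis and rice.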

Apera spica-venti = assay: Test Example 4: herbicidal effect by soil treatment (symbol L)
Summary of the method: as §1

Monochoria vaginalis [7] = assay: Test Example 2: herbicidal activity, application during weed generation in submerged conditions (symbol C); conditions: Table 23; application herbicide amount 320 g/ha; grade 0-5 by criteria of Test Example 1
Summary of the method: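 Seeds sown in flooded alluvial soil (4 cm water) were grown in a 25-30° C greenhouse. At the one- to two-leaf stage, diluted emulsion of compound was applied to the water surface at a predetermined rate. Effect was scored 3 weeks later.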

[8] = application herbicide amount 320 g/ha

CON=C(CC1CC(O)=C(c2c(C)cc(Br)cc2C)C1=O)C(C)C (centres unmarked) [9-001]
Effect on crop grade, g: rapeseed (rapeseed; [8]): 0 (Herbicidal ratio of 5% or lower (almost no effect)) | Herbicidal effect grade, F: Digitaria ciliaris (Digitaria ciliaris; [8]): 4 (Herbicidal ratio of 70% or higher and lower than 90%) | Herbicidal effect grade, N: Amaranthus retroflexus (Amaranthus retroflexus [1]; [8]): 1 (Herbicidal ratio of 5% or higher and lower than 20%) | I: Avena fatua, herbicidal effect grade (Avena fatua): 5 (Herbicidal ratio of 90% or more (almost completely withered)) | Herbicidal effect grade, C: Monochoria vaginalis (Monochoria vaginalis [2]): 0 (Herbicidal ratio of 5% or lower (almost no effect)) | H: Echinochloa crus-galli var. crus-galli, herbicidal effect grade [3]: 5 (Herbicidal ratio of 90% or more (almost completely withered)) | E herbicidal effect grade (Cyperus difformis; Table 24): 2 (Herbicidal ratio of 20% or higher and lower than 40%) | J: Alopecurus myosuroides, herbicidal effect grade (Alopecurus myosuroides): 3 (Herbicidal ratio of 40% or higher and lower than 70%) | Herbicidal effect grade, A: Echinochloa oryzacola Vasing. [4]: 4 (Herbicidal ratio of 70% or higher and lower than 90%) | N: Amaranthus retroflexus, herbicidal effect grade (Amaranthus retroflexus [5]): 0 (Herbicidal ratio of 5% or lower (almost no effect)) | b (directly sowed rice plant) effect on crop grade ([6]; Table 24): 5 (Herbicidal ratio of 90% or more (almost completely withered)) | Herbicidal effect grade, L: Apera spica-venti (Apera spica-venti; [8]): 4 (Herbicidal ratio of 70% or higher and lower than 90%) | Herbicidal effect grade, C: Monochoria vaginalis (Monochoria vaginalis [7]): 0 (Herbicidal ratio of 5% or lower (almost no effect))

CC(CC1CC(O)=C(c2c(C)cc(C)cc2C)C1=O)=NO (centres unmarked) [1-058]
g (rapeseed) effect on crop grade (rapeseed; [8]): 3 (Herbicidal ratio of 40% or higher and lower than 70%) | F (Digitaria ciliaris) herbicidal effect grade (Digitaria ciliaris; [8]): 5 (Herbicidal ratio of 90% or more (almost completely withered)) | N (Amaranthus retroflexus) herbicidal effect grade (Amaranthus retroflexus [1]; [8]): 2 (Herbicidal ratio of 20% or higher and lower than 40%) | I: Avena fatua, herbicidal effect grade (Avena fatua): 5 (Herbicidal ratio of 90% or more (almost completely withered)) | Herbicidal effect grade, C: Monochoria vaginalis (Monochoria vaginalis [2]): 0 (Herbicidal ratio of 5% or lower (almost no effect)) | H: Echinochloa crus-galli var. crus-galli, herbicidal effect grade [3]: 5 (Herbicidal ratio of 90% or more (almost completely withered)) | herbicidal effect on E, grade 0-5 (Cyperus difformis): 5 (Herbicidal ratio of 90% or more (almost completely withered)) | J: Alopecurus myosuroides, herbicidal effect grade (Alopecurus myosuroides): 5 (Herbicidal ratio of 90% or more (almost completely withered)) | Herbicidal effect grade, A: Echinochloa oryzacola Vasing. [4]: 5 (Herbicidal ratio of 90% or more (almost completely withered)) | N: Amaranthus retroflexus, herbicidal effect grade (Amaranthus retroflexus [5]): 1 (Herbicidal ratio of 5% or higher and lower than 20%) | effect on crop b (directly sowed rice plant), grade 0-5 [6]: 5 (Herbicidal ratio of 90% or more (almost completely withered)) | L (Apera spica-venti) herbicidal effect grade (Apera spica-venti; [8]): 4 (Herbicidal ratio of 70% or higher and lower than 90%) | Herbicidal effect grade, C: Monochoria vaginalis (Monochoria vaginalis [7]): 0 (Herbicidal ratio of 5% or lower (almost no effect))

CC(CC1CC(O)=C(c2c(C)cc(C)cc2C)C1=O)=NOCC[Si](C)(C)C (centres unmarked) [1-055]
g (rapeseed) effect on crop grade (rapeseed; [8]): 0 (Herbicidal ratio of 5% or lower (almost no effect)) | F (Digitaria ciliaris) herbicidal effect grade (Digitaria ciliaris; [8]): 5 (Herbicidal ratio of 90% or more (almost completely withered)) | N (Amaranthus retroflexus) herbicidal effect grade (Amaranthus retroflexus [1]; [8]): 0 (Herbicidal ratio of 5% or lower (almost no effect)) | I: Avena fatua, herbicidal effect grade (Avena fatua): 4 (Herbicidal ratio of 70% or higher and lower than 90%) | Herbicidal effect grade, C: Monochoria vaginalis (Monochoria vaginalis [2]): 0 (Herbicidal ratio of 5% or lower (almost no effect)) | H: Echinochloa crus-galli var. crus-galli, herbicidal effect grade [3]: 4 (Herbicidal ratio of 70% or higher and lower than 90%) | herbicidal effect on E, grade 0-5 (Cyperus difformis): 4 (Herbicidal ratio of 70% or higher and lower than 90%) | J: Alopecurus myosuroides, herbicidal effect grade (Alopecurus myosuroides): 4 (Herbicidal ratio of 70% or higher and lower than 90%) | Herbicidal effect grade, A: Echinochloa oryzacola Vasing. [4]: 5 (Herbicidal ratio of 90% or more (almost completely withered)) | N: Amaranthus retroflexus, herbicidal effect grade (Amaranthus retroflexus [5]): 0 (Herbicidal ratio of 5% or lower (almost no effect)) | effect on crop b (directly sowed rice plant), grade 0-5 [6]: 5 (Herbicidal ratio of 90% or more (almost completely withered)) | L (Apera spica-venti) herbicidal effect grade (Apera spica-venti; [8]): 2 (Herbicidal ratio of 20% or higher and lower than 40%) | Herbicidal effect grade, C: Monochoria vaginalis (Monochoria vaginalis [7]): 0 (Herbicidal ratio of 5% or lower (almost no effect))

CC#CC(=O)OC1=C(c2c(C)cc(C)cc2C)C(=O)C(CC(C)=NOC)C1 (centres unmarked) [1-095]
g: rapeseed, effect grade on crop (rapeseed; 320 g/ha): 4 (Herbicidal ratio of 70% or higher and lower than 90%) | F: Digitaria ciliaris, herbicidal effect grade (Digitaria ciliaris; 320 g/ha): 5 (Herbicidal ratio of 90% or more (almost completely withered)) | N: Amaranthus retroflexus, herbicidal effect grade (Amaranthus retroflexus [1]; 320 g/ha): 4 (Herbicidal ratio of 70% or higher and lower than 90%) | I: Avena fatua, herbicidal effect (criteria 0-5) (Avena fatua): 5 (Herbicidal ratio of 90% or more (almost completely withered)) | Herbicidal effect grade, C: Monochoria vaginalis (Monochoria vaginalis [2]): 2 (Herbicidal ratio of 20% or higher and lower than 40%) | H: Echinochloa crus-galli var. crus-galli, herbicidal effect (criteria 0-5) [3]: 5 (Herbicidal ratio of 90% or more (almost completely withered)) | herbicidal effect on E, grade 0-5 (Cyperus difformis): 5 (Herbicidal ratio of 90% or more (almost completely withered)) | J: Alopecurus myosuroides, herbicidal effect (criteria 0-5) (Alopecurus myosuroides): 5 (Herbicidal ratio of 90% or more (almost completely withered)) | Herbicidal effect grade, A: Echinochloa oryzacola Vasing. [4]: 5 (Herbicidal ratio of 90% or more (almost completely withered)) | N: Amaranthus retroflexus, herbicidal effect (criteria 0-5) (Amaranthus retroflexus [5]): 3 (Herbicidal ratio of 40% or higher and lower than 70%) | effect on crop b (directly sowed rice plant), grade 0-5 [6]: 5 (Herbicidal ratio of 90% or more (almost completely withered)) | L: Apera spica-venti, herbicidal effect grade (Apera spica-venti; 320 g/ha): 5 (Herbicidal ratio of 90% or more (almost completely withered)) | Herbicidal effect grade, C: Monochoria vaginalis (Monochoria vaginalis [7]): 1 (Herbicidal ratio of 5% or higher and lower than 20%)

CON=C(C)CC1CC(OC(=O)C(C)(C)Oc2ccccc2Cl)=C(c2c(C)cc(C)cc2C)C1=O (centres unmarked) [1-064]
g (rapeseed) effect on crop grade (rapeseed; [8]): 4 (Herbicidal ratio of 70% or higher and lower than 90%) | F (Digitaria ciliaris) herbicidal effect grade (Digitaria ciliaris; [8]): 5 (Herbicidal ratio of 90% or more (almost completely withered)) | N (Amaranthus retroflexus) herbicidal effect grade (Amaranthus retroflexus [1]; [8]): 4 (Herbicidal ratio of 70% or higher and lower than 90%) | I: Avena fatua, herbicidal effect grade (Avena fatua): 5 (Herbicidal ratio of 90% or more (almost completely withered)) | Herbicidal effect grade, C: Monochoria vaginalis (Monochoria vaginalis [2]): 1 (Herbicidal ratio of 5% or higher and lower than 20%) | H: Echinochloa crus-galli var. crus-galli, herbicidal effect grade [3]: 5 (Herbicidal ratio of 90% or more (almost completely withered)) | herbicidal effect on E, grade 0-5 (Cyperus difformis): 5 (Herbicidal ratio of 90% or more (almost completely withered)) | J: Alopecurus myosuroides, herbicidal effect grade (Alopecurus myosuroides): 5 (Herbicidal ratio of 90% or more (almost completely withered)) | Herbicidal effect grade, A: Echinochloa oryzacola Vasing. [4]: 5 (Herbicidal ratio of 90% or more (almost completely withered)) | N: Amaranthus retroflexus, herbicidal effect grade (Amaranthus retroflexus [5]): 2 (Herbicidal ratio of 20% or higher and lower than 40%) | effect on crop b (directly sowed rice plant), grade 0-5 [6]: 5 (Herbicidal ratio of 90% or more (almost completely withered)) | L (Apera spica-venti) herbicidal effect grade (Apera spica-venti; [8]): 5 (Herbicidal ratio of 90% or more (almost completely withered)) | Herbicidal effect grade, C: Monochoria vaginalis (Monochoria vaginalis [7]): 1 (Herbicidal ratio of 5% or higher and lower than 20%)
